This note sets out measurements from ChEMBL document CHEMBL1201862, “PubChem BioAssay data set” (2004).

By EC50 is commonly meant the concentration giving half of the maximal effect. The CC50 is the concentration giving 50% cytotoxicity. One may read the AC50 as the midpoint of the concentration-response curve, whichever way the signal moves.

Counter-ions that a name gives are not always drawn. Calls of active or inactive are those of the source. Some results are limits rather than exact numbers.

The target of assay [1] is Nuclear receptor subfamily 5 group A member 2 (Homo sapiens, UniProt O00482). The format is functional, cell-based.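 Further: HEK293T cells transfected with LRH-1 and a StAR promoter luciferase reporter; potency for inhibitors that lower LRH-1 driven reporter light.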
Sequence of Nuclear receptor subfamily 5 group A member 2 (O00482 whole entry): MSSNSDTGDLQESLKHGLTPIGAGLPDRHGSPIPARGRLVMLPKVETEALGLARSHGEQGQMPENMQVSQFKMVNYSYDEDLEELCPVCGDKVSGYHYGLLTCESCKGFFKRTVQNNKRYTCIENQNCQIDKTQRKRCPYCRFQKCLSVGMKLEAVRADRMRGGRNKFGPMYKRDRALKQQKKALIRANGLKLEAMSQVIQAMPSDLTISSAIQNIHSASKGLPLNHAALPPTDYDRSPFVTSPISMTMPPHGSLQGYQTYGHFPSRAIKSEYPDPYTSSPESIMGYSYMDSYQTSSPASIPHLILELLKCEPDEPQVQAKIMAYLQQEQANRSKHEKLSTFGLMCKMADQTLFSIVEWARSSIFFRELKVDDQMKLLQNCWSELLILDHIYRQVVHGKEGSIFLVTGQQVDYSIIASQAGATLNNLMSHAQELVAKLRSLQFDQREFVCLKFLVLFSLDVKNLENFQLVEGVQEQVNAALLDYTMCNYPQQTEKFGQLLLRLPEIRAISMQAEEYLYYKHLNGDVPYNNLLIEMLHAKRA
For another assay, the target named is Steroidogenic factor 1 (Homo sapiens, UniProt Q13285). Put plainly: Counterscreen for inverse agonists of the liver receptor homolog-1 (LRH-1; NR5A2): Luminescence-based cell-based high throughput dose response assay to identify inverse agonists of the Steroidogenic Factor 1 Nuclear Receptor (SF1; NR5A1). Type of assay: functional. For orientation: Counterscreens check selectivity or assay interference.
Sequence of Steroidogenic factor 1 (Q13285 whole entry): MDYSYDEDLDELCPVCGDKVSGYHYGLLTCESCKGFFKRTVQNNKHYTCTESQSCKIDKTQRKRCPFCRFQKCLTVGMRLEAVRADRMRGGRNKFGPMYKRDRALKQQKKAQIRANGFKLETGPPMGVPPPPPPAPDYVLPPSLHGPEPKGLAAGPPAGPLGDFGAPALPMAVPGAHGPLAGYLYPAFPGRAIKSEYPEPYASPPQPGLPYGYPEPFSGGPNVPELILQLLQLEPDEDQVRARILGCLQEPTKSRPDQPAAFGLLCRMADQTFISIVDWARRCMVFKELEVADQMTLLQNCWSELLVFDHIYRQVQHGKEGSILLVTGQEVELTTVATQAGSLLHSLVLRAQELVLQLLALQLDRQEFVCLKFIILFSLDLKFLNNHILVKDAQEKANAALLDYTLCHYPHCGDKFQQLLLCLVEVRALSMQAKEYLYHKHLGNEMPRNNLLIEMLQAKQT

Assay [2] in a line: StAR promoter reporter inhibition counter-screen, dose response, counter-screen for LRH-1 inverse agonist project, cell-based, luminescence, luciferase reporter (AID 651969). Type of assay: functional.
Assay [3] has as its target T1, Apoptotic protease-activating factor 1 (Homo sapiens, UniProt O14727).
T1 sequence (O14727 whole entry): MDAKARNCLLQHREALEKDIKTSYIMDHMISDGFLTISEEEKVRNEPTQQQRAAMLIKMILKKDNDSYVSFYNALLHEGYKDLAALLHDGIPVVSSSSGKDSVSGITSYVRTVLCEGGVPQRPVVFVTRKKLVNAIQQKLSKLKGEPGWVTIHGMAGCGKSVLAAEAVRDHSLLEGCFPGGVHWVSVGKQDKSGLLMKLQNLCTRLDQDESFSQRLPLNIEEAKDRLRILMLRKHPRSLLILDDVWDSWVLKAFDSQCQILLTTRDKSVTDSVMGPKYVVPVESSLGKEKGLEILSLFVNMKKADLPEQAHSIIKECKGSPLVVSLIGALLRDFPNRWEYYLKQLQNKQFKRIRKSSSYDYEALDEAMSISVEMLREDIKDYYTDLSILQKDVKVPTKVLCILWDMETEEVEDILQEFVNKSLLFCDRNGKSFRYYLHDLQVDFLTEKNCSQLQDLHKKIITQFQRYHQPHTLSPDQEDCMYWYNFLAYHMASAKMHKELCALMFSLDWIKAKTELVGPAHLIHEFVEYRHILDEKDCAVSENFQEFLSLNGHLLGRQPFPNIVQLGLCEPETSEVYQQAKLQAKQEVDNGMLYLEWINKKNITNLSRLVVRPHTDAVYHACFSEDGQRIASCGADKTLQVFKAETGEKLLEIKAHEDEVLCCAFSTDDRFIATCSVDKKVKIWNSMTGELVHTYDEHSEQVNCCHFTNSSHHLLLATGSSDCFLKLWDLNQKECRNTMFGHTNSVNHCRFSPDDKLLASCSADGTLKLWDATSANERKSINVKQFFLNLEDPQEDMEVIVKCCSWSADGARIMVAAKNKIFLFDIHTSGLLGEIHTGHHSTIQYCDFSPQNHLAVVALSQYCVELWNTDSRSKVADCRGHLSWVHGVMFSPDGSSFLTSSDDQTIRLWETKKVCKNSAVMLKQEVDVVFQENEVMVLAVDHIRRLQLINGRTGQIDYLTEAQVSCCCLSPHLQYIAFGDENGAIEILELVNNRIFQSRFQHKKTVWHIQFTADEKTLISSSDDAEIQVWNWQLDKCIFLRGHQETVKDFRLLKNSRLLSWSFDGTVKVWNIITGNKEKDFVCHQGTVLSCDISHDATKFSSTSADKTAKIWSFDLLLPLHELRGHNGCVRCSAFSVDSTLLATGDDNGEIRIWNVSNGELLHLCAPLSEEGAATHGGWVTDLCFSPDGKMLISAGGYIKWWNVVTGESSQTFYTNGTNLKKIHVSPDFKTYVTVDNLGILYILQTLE
The format is functional.

Assay [4] concerns the target Glucose-6-phosphate 1-dehydrogenase (Homo sapiens, UniProt P11413). Put plainly: human G6PD enzyme inhibitors, dose response, selectivity assay for P. falciparum G6PD inhibitor project, biochemical, fluorescence (AID 504792). The format is functional.
The target of another assay is T2, Phospholipase D1 (Homo sapiens, UniProt Q13393).
T2 sequence (Q13393 whole entry): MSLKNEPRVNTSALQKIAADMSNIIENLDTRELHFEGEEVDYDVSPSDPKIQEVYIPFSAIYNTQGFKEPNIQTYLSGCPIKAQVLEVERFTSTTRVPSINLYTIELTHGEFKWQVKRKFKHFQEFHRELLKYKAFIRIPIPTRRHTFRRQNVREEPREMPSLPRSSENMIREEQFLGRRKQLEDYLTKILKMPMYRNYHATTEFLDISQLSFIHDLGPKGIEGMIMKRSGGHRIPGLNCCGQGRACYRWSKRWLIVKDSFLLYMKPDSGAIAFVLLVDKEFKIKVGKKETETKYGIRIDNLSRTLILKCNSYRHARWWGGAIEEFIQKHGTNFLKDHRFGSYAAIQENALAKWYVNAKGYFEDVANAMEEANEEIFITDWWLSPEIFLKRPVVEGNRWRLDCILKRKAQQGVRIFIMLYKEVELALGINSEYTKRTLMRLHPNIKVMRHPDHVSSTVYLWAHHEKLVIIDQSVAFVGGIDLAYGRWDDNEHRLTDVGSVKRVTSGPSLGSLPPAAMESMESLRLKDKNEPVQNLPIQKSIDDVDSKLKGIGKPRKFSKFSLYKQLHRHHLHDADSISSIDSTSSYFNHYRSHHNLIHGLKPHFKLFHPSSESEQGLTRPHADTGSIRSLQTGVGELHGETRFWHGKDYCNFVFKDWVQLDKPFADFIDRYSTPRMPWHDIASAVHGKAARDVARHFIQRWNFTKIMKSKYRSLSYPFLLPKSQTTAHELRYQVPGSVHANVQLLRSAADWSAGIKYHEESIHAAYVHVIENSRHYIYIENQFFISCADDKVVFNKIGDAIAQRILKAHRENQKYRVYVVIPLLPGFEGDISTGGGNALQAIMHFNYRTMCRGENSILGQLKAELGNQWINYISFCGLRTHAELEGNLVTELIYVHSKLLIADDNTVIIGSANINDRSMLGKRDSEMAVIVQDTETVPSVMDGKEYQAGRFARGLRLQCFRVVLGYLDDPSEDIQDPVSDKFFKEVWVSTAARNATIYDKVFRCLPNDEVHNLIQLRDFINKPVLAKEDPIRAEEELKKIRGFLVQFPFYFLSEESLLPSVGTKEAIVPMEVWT
As to the kind of experiment: PLD1 inhibitor potency in cells, dose response (AID 602151).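 Further: cellular PLD1 assay in Calu-1 cells stimulated with PMA.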 Type of assay: functional.

Another assay deals with Phospholipase D2 (Homo sapiens, UniProt O14939). Put plainly: PLD2 inhibitor potency in cells, dose response (AID 602147).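 Further: cellular assay in HEK293 cells overexpressing GFP-tagged PLD2.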 Type of assay: functional.
Sequence of Phospholipase D2 (O14939 whole entry): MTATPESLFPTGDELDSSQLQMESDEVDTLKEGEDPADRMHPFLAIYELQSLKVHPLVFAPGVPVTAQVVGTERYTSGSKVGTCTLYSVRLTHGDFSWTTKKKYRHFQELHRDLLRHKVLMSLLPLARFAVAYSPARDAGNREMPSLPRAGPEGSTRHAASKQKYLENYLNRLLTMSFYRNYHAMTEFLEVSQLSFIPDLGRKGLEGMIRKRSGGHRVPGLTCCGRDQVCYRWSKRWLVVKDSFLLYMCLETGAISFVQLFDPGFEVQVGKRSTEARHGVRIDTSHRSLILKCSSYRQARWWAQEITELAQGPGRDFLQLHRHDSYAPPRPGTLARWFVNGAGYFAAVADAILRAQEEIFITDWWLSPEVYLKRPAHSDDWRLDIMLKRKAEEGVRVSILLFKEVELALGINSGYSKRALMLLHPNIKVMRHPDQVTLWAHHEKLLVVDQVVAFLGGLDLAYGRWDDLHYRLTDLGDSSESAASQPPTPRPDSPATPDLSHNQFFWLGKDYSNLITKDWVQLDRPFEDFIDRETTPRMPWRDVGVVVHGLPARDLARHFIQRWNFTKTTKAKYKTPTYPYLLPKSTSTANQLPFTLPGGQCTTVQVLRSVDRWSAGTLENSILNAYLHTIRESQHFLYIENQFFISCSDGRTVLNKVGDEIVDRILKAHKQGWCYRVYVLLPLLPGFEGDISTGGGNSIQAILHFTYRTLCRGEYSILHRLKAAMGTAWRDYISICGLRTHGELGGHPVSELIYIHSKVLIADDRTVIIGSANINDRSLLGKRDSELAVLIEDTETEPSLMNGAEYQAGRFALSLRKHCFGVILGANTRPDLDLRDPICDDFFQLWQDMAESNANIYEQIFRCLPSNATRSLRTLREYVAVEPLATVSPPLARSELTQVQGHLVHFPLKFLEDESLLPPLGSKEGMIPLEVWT
Assay [5] deals with SWI/SNF-related matrix-associated actin-dependent regulator of chromatin subfamily A member 2 (Homo sapiens, UniProt P51531). Put plainly: Luminescence-based cell-based high throughput dose response assay to identify activators of the function of SWI/SNF related, matrix associated, actin dependent regulator of chromatin, subfamily a, member 2 (SMARCA2, BRM). Type of assay: functional.
Sequence of SWI/SNF-related matrix-associated actin-dependent regulator of chromatin subfamily A member 2 (P51531 whole entry): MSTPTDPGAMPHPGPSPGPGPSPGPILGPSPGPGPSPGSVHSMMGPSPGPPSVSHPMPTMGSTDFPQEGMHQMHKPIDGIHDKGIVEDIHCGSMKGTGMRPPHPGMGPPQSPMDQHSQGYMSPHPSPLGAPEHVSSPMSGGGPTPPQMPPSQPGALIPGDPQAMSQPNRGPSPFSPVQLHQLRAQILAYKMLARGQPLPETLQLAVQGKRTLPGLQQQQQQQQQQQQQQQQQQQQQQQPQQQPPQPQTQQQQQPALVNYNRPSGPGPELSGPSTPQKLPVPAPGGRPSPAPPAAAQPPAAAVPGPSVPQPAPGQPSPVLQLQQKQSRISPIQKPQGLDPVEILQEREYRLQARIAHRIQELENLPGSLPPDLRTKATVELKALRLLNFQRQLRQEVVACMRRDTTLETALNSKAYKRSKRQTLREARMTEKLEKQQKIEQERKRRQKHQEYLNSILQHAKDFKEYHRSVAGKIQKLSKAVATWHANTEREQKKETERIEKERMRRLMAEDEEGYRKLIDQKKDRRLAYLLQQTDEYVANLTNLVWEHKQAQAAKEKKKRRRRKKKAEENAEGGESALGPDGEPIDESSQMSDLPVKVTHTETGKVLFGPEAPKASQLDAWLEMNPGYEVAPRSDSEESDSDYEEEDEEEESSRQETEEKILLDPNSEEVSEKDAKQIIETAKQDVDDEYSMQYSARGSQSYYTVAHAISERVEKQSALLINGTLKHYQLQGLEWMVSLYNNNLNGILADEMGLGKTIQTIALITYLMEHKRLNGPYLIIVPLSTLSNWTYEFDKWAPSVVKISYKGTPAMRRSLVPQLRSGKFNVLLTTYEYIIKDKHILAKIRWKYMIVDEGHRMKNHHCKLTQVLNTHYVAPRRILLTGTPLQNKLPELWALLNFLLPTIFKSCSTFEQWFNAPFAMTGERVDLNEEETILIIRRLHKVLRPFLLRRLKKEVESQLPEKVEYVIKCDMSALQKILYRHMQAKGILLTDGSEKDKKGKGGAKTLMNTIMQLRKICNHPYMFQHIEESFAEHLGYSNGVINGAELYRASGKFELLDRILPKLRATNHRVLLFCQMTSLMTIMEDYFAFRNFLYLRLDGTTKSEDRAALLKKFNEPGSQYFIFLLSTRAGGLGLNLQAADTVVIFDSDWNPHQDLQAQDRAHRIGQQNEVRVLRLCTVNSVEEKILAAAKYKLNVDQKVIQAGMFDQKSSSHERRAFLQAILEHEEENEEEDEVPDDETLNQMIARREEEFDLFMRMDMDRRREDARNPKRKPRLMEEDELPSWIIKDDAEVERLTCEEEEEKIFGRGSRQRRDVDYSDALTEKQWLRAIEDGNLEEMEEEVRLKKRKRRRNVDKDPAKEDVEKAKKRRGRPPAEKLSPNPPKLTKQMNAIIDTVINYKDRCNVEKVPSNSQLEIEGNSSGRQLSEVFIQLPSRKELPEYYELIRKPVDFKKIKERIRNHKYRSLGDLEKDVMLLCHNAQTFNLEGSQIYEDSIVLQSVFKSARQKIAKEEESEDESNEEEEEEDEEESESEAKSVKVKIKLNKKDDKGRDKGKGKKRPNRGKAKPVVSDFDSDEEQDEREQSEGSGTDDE

A short description of assay [6]: Counterscreen for activators of the function of SWI/SNF related, matrix associated, actin dependent regulator of chromatin, subfamily a, member 2 (SMARCA2, BRM): Luminescence-based cell-based high throughput dose response assay to identify non-selective compounds using the VP16 reporter assay. The format is functional.
Another assay concerns the target Genome polyprotein (dengue virus type 2, UniProt P29990). Put plainly: Dengue-2 NS5 methyltransferase inhibitors, primary screen, biochemical, confirmation dose response (AID 588689). Type of assay: functional.
The target of assay [7] is Induced myeloid leukemia cell differentiation protein Mcl-1 (Homo sapiens, UniProt Q07820). Type of assay: functional.
Sequence of Induced myeloid leukemia cell differentiation protein Mcl-1 (Q07820 whole entry): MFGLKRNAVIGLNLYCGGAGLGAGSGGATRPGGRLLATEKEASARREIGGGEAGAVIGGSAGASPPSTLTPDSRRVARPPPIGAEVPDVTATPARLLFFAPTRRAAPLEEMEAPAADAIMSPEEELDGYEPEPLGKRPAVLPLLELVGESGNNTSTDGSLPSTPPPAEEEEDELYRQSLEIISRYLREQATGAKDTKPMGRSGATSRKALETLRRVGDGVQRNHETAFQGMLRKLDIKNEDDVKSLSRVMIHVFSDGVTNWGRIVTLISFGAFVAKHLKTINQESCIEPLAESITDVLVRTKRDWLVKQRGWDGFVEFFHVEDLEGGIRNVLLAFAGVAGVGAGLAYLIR
Assay [8] deals with Eukaryotic translation initiation factor 4E (Mus musculus, UniProt P63073). As to the kind of experiment: eIF4E–eIF4G protein interaction inhibitors, dose response, biochemical, TR-FRET (AID 855).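 Further: potency for disrupting eIF4E binding to eIF4GI seen as loss of FRET.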 The format is functional.
Sequence of Eukaryotic translation initiation factor 4E (P63073 whole entry): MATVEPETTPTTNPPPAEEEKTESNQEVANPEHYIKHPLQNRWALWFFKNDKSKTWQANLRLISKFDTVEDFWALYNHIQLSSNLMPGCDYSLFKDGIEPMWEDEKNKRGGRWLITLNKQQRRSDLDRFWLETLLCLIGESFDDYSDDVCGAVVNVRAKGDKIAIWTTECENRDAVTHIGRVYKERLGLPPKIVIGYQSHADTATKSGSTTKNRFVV
For another assay, the target named is Nonstructural protein 1 (Influenza A virus, UniProt Q194T2). The format is functional, Influenza A virus (A/California/07/2009(H1N1)).
In another assay the test system is Vero. Put plainly: Vero cell cytotoxicity, cytotoxicity control for flavivirus capping enzyme inhibitors (AID 588742). Type of assay: functional. The conditions noted are these: Chlorocebus sabaeus.
The target of assay [9] is T3, Mannose-6-phosphate isomerase (Homo sapiens, UniProt P34949).
T3 sequence (P34949 whole entry): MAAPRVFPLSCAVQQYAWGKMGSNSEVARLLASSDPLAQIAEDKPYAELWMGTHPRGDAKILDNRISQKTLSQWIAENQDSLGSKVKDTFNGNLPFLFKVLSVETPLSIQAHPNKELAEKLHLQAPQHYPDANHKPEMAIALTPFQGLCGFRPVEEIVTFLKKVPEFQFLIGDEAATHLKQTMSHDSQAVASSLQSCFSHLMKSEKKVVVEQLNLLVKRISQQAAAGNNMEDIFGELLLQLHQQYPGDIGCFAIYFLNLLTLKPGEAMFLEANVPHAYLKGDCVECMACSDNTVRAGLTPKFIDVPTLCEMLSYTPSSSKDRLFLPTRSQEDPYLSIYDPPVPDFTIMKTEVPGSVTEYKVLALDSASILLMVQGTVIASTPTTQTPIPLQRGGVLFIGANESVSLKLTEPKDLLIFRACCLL
As to the kind of experiment: human PMI inhibitors, high substrate, primary screen, biochemical, fluorescence intensity, high mannose 6-phosphate (AID 1220).

The test system of the next assay is INS1. As to the kind of experiment: beta cell apoptosis inhibitors, cytokine rescue, dose response, luminescence, retest (AID 449756).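 Further: cell death triggered by IL-1 beta plus TNF-alpha plus IFN-gamma mixture; protective hits raise ATP signal compared with cytokine alone wells.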 Type of assay: functional, cell-based. The conditions noted are these: Rattus norvegicus.
Assay [10] is described as follows: insulin promoter down-regulators in MIN6 cells, imaging, high-content screening, mouse beta cells (AID 1628). Type of assay: functional.
Assay [11] in a line: Shn3 3'UTR reporter inhibitors, dose response, cell-based, Clone20 osteoblasts, firefly luciferase, cherry-picked (AID 624132).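 Further: firefly luciferase luminescence from reporter carrying the Shn3 3'UTR in osteoblasts.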 The format is functional.
A further assay addresses Protein Wnt-3a (Mus musculus, UniProt P27467). Put plainly: Wnt3a-driven reporter signaling inhibition, dose response, selectivity assay for Gli-SUFU antagonist project, Wnt-LIGHT cells, luminescence (AID 651570).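 Further: Wnt-LIGHT reporter cells stimulated with conditioned medium from Wnt3a-producing cells.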 The format is functional. The conditions noted are these: read-out: IC50_Mean.
A short description of assay [12]: cytotoxicity in MIN6 insulinoma cells, dose response, cytotoxicity control, cell-based, mouse insulinoma (AID 2122).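 Further: confirmatory high-throughput counterscreen run to flag cytotoxic compounds; mouse MIN-6 beta cells carrying an insulin promoter eGFP reporter.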 Type of assay: functional.
A short description of assay [13]: HepG2 cell cytotoxicity, dose response, cytotoxicity control for Shn3 inhibitor project, CellTiter-Glo, cherry-picked (AID 624134). The format is functional, cell-based. On the technique in general: In ATP-based viability assays light output follows the ATP content of the culture.
A short description of assay [14]: control 3'UTR Renilla luciferase suppression, dose response, counter-screen for Shn3 inhibitor project, cell-based, Clone20-Shn3RL, cherry-picked (AID 624133). The format is functional.
The nature of assay [15]: cytotoxicity toward NIH3T3 fibroblasts, dose response, counter-screen, cell-based, ATP luminescence, mouse fibroblasts (AID 2010).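 Further: cells exposed to compound for about 90 hours before reading.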 Type of assay: functional.
Assay [16] can be described thus: inhibitors of intracellular T. cruzi replication, confirmation, NIH3T3 host cells, beta-gal luminescence (AID 2044).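 Further: intracellular parasites grown in NIH/3T3 mouse fibroblasts as host cells; luminescent beta-galactosidase reporter signal from transgenic T. cruzi replicating inside host cells; inhibitors lower the luminescence signal.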 Type of assay: functional, cell-based.

Sequence of Protein Wnt-3a (P27467 whole entry): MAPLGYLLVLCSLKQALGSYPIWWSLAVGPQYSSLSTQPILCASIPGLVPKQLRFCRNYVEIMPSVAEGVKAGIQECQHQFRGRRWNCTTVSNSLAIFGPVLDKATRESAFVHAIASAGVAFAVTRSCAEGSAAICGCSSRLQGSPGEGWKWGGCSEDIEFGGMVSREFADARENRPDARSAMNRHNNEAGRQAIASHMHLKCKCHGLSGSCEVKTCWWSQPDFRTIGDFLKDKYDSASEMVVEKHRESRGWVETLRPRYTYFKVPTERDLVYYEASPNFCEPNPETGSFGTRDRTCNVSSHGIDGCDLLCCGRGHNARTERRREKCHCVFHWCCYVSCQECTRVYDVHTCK
Sequence of Glucose-6-phosphate 1-dehydrogenase (P11413 whole entry): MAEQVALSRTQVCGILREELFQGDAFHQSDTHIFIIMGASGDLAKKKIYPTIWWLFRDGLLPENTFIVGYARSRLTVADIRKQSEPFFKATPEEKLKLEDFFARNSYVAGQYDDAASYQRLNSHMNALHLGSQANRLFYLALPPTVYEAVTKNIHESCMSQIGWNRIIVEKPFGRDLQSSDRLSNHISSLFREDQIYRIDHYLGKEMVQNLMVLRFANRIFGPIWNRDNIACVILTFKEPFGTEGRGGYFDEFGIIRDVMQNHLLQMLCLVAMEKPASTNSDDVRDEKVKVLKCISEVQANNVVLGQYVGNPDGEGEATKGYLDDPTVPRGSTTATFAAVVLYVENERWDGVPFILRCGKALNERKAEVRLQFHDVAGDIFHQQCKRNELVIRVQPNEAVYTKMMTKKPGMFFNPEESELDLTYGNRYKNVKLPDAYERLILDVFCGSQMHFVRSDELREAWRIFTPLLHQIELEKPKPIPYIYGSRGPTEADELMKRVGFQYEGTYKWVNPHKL

On to `COc1cccc(NC(=O)c2oc3ccccc3c2NC(=O)C2CC2)c1`, for which the IC50 in [1] was 35.9 µM (inactive); at Steroidogenic factor 1 it was 16 µM (inactive); in [2], 35.9 µM (inactive).
For the compound `CCOC(=O)Nc1ccc(NCc2ccc(F)cc2)nc1N` [FLUPIRTINE MALEATE], the IC50 in [3] was 26.6 µM (active); in assay [4], 65.4 µM (inactive).
For `O=C(N[C@@H](Cc1ccccc1)CN1CCC(n2c(=O)[nH]c3ccccc32)CC1)c1cnc2ccccc2c1`, the values for the IC50 at Phospholipase D1 and on Phospholipase D2 were 2.8 µM (active) and 20 µM (active), respectively.
Turning to `O=C(Cc1ccc(-c2ccccc2)cc1)Nc1ccccn1` [DIFENPIRAMIDE], the EC50 in [5] and in assay [6] was > 91.2 µM (inactive) in each case.
`CC1=CC(O)C(O)C2(C)C1CC1OC(=O)CC3C(C)C(O)C(=O)C2C13CO` (centres undefined): the IC50 in [1] is 6.91 µM (active); on Steroidogenic factor 1, 4.96 µM (active); in assay [2] it was 17.7 µM (inactive).
Take `CCOc1cc(CNc2ccc(N3CCCC3)cc2)cc(Cl)c1OC`: the IC50 at Genome polyprotein was 48.2 µM (active); in assay [7] it was 2.43 µM (not active); in [8], > 64 µM (inactive); at Nonstructural protein 1 it was 20.7 µM (active); in assay [3], > 100 µM (inactive); in assay [4] it was > 80 µM (inactive). Further, the IC50 in assay [9] was 8.91 µM (active). Besides, the CC50 with Vero is > 40 µM (active).
Take `O=C(c1cc2sccc2n1Cc1ccccc1)N1CCN(c2nc3ccccc3s2)CC1`: the AC50 in the assay with INS1 was 3.56 µM (active); in assay [11] it was 1.09 µM (active); in [13] it was 2.92 µM (active); in assay [14], 0.453 µM (active). Moreover, the IC50 was 0.735 µM (active) in [10], 2.68 µM (active) at Protein Wnt-3a and 0.779 µM (active) in [12].
Consider `C[C@@H](CN1CCC(n2c(=O)[nH]c3ccc(F)cc32)CC1)NC(=O)c1ccc(F)c(F)c1`, for which the IC50 was 0.005 µM (active) at Phospholipase D1 and 0.315 µM (active) on Phospholipase D2.
Take `Cc1cc(NCCN2CCOCC2)c2ccc3ccccc3c2n1`: the EC50 is 25.3 µM (inactive) in [5], > 60 µM (not active) in [15], 0.949 µM (active) in [16] and > 91.2 µM (inactive) in [6].
For the compound `CCn1c(C)nc2cc(-c3nnc(-c4c(-c5ccccc5)noc4C)o3)ccc21`, the AC50 is 5.72 µM (active) with INS1, 5.82 µM (active) in [11] and 5.96 µM (active) in [14]. The IC50 at Protein Wnt-3a is 2.59 µM (active).
As to `COc1cccc(N2CCN(CCNC(=O)c3ccc4ccccc4c3)CC2)c1`, the figures for the IC50 at Phospholipase D1 and on Phospholipase D2 were 10 µM (active) and 18 µM (active), respectively.
